Test results published in article PMC11071649, “Synthesis and Selective Anticancer Activity Evaluation of 2-phenylacrylonitrile Derivatives as Tubulin Inhibitors” (Current Medicinal Chemistry, 2024).

Key:
Format in all cases: cell-based, human
A549 lung cancer cell = test: MTT anti-proliferative assay, A549; conditions: MTT, 48 h
Method in brief: (§1)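 Human cell lines were obtained from ATCC and cultured in DMEM with FBS. Cells were plated in 96-well plates, exposed to compounds and assessed by MTT read-out. Activity was expressed as inhibition of net cell growth.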

AGS gastric cancer cell = test: MTT anti-proliferative assay, AGS; conditions: for IC50: MTT, 48 h
Method in brief: as §1

[1] = tested on: BEL-7402 liver cancer cell; test: MTT anti-proliferative assay, BEL-7402; conditions: for IC50: MTT, 48 h
Method in brief: as §1

[2] = tested on: HCT116 colectal cancer cell; test: MTT anti-proliferative assay, HCT116; conditions: for IC50: MTT, 48 h, read-out: IC50 HCT-116
Method in brief: as §1

[3] = tested on: HeLa cervical cancer cell; test: MTT anti-proliferative assay, HeLa; conditions: MTT, 48 h
Method in brief: as §1

HepG2 hepatoma cell = test: MTT anti-proliferative assay, HepG2; conditions: MTT, 48 h; read-out: IC50 HepG-2
Method in brief: as §1

L-02 normal liver cell = test: MTT assay, L-02 normal cells; conditions: 48 h
Method in brief: as §1

[4] = tested on: MGC-803 late stage differentiation gastric cancer cell; test: MTT anti-proliferative assay, MGC-803; conditions: for IC50: MTT, 48 h
Method in brief: as §1

MCF-7 breast cancer cell = test: MTT anti-proliferative assay, MCF-7; conditions: for IC50: MTT, 48 h
Method in brief: as §1

[5] = tested on: MCF-10A normal breast cell; test: MTT assay, MCF-10A normal cells; conditions: 48 h
Method in brief: as §1

[6] = tested on: Raji B lymphoblastoid cell; test: MTT anti-proliferative assay, Raji; conditions: for IC50: MTT, 48 h, read-out: IC50 Raji
Method in brief: as §1

[7] = tested on: SGC-7901 early differentiation gastric cancer cell; test: MTT anti-proliferative assay, SGC-7901; conditions: for IC50: MTT, 48 h
Method in brief: as §1

[8] = tested on: diffuse large B-cell lymphoma SU-DHL-10 cell; test: MTT anti-proliferative assay, SU-DHL-10; conditions: for IC50: MTT, 48 h, read-out: IC50 SU-DHL-10
Method in brief: as §1

Compound | IC50 (A549 lung cancer cell) [µM] | IC50 (AGS gastric cancer cell) [µM] | IC50 [1] [µM] | IC50 [2] [µM] | IC50 [3] [µM] | IC50 (HepG2 hepatoma cell) [µM] | IC50 (L-02 normal liver cell) [µM] | SI (selectivity index), IC50 (L-02)/IC50 (MGC-803) [4] | IC50 [4] [µM] | IC50 (MCF-7 breast cancer cell) [µM] | IC50 [5] [µM] | SI (selectivity index), IC50 (L-02)/IC50 (Raji) [6] | IC50 [6] [µM] | IC50 [7] [µM] | SI (selectivity index), IC50 (L-02)/IC50 (SU-DHL-10) [8] | IC50 [8] [µM] | other results
Cc1ccc(/C(C#N)=C/c2ccc(N(C)C)cc2)cc1 [Compound 1d2a] | > 100 | 23 ± 1 | > 100 | > 100 | > 100 | > 100 | > 100 | > 5.3 | 18.8 ± 1.7 | > 100 | > 100 | > 12.5 | 7.9 ± 0.5 | > 100 | > 5.0 | 19.9 ± 0.7 | SI (selectivity index), IC50 (L-02)/IC50 (AGS) (AGS gastric cancer cell): > 4.3
CCN(CC)c1ccc(/C=C(\C#N)c2ccc(C)cc2)cc1 [Compound 1d2b] | > 100 | 24.1 ± 0.2 | 65.4 ± 2.5 | 3.1 ± 0.5 | > 100 | > 100 | > 100 | > 11.5 | 8.6 ± 0.04 | 52.3 ± 2.2 | > 100 | > 8.4 | 11.8 ± 0.4 | > 100 | > 2.3 | 42.6 ± 11.4 | SI (selectivity index), IC50 (L-02)/IC50 (AGS) (AGS gastric cancer cell): > 4.1; SI (selectivity index), IC50 (L-02)/IC50 (BEL-7402) [1]: > 1.5; SI (selectivity index), IC50 (L-02)/IC50 (HCT-116) [2]: > 32.0; SI (selectivity index), IC50 (MCF-10A)/IC50 (MCF-7) (MCF-7 breast cancer cell): > 1.9
COc1ccc(/C(C#N)=C/c2cc(OC)c(OC)c(OC)c2)cc1 [Compound 1e2a] | > 100 | 18.4 ± 1.9 | 46.8 ± 5.1 | 7.2 ± 0.6 | > 100 | > 100 | 47.5 ± 12.4 | > 5.7 | 8.3 ± 1.2 | 36.9 ± 3.6 | 28.1 ± 3.6 | > 4.0 | 11.6 ± 4.9 | 38.2 ± 9 | > 1.7 | 27.2 ± 5.3 | SI (selectivity index), IC50 (L-02)/IC50 (AGS) (AGS gastric cancer cell): > 2.8; SI (selectivity index), IC50 (L-02)/IC50 (BEL-7402) [1]: > 1.0; SI (selectivity index), IC50 (L-02)/IC50 (HCT-116) [2]: > 6.5; SI (selectivity index), IC50 (L-02)/IC50 (SGC-7901) [7]: > 1.2
COc1ccc(/C(C#N)=C/c2ccc(N(C)C)cc2)cc1 [Compound 1e2b] | > 100 | > 100 | > 100 | > 100 | > 100 | > 100 | > 100 | > 6.6 | 15.1 ± 1.2 | > 100 | > 100 | > 7.8 | 12.7 ± 3.8 | 22.6 | – | > 100 | SI (selectivity index), IC50 (L-02)/IC50 (SGC-7901) [7]: > 4.4
CCN(CC)c1ccc(/C=C(\C#N)c2ccc(OC)cc2)cc1 [Compound 1e2c] | > 100 | > 100 | > 100 | > 100 | > 100 | > 100 | > 100 | – | > 100 | > 100 | > 100 | > 5.1 | 19.3 ± 0.5 | > 100 | > 1.6 | 62.3 ± 9.6 | –
CN(C)c1ccc(/C=C(\C#N)c2ccc(C(F)(F)F)cc2)cc1 [Compound 1f2a] | > 100 | > 100 | > 100 | > 100 | > 100 | > 100 | > 100 | – | > 100 | > 100 | > 100 | – | > 100 | > 100 | – | > 100 | –
CCN(CC)c1ccc(/C=C(\C#N)c2ccc(C(F)(F)F)cc2)cc1 [Compound 1f2b] | > 100 | > 100 | > 100 | 33 ± 5.8 | > 100 | > 100 | > 100 | – | > 100 | > 100 | > 100 | – | > 100 | > 100 | – | > 100 | SI (selectivity index), IC50 (L-02)/IC50 (HCT-116) [2]: > 3.0
N#C/C(=C\c1ccccc1)c1ccc(C(F)(F)F)cc1 [Compound 1f2c] | > 100 | > 100 | > 100 | > 100 | > 100 | > 100 | > 100 | – | > 100 | > 100 | > 100 | – | > 100 | > 100 | – | > 100 | –
N#C/C(=C\c1ccc(F)cc1)c1ccc(C(F)(F)F)cc1 [Compound 1f2d] | > 100 | > 100 | > 100 | > 100 | > 100 | > 100 | > 100 | > 1.9 | 51.9 ± 2.1 | > 100 | > 100 | – | > 100 | > 100 | – | > 100 | –
N#C/C(=C\c1ccc(Cl)cc1)c1ccc(C(F)(F)F)cc1 [Compound 1f2e] | > 100 | > 100 | > 100 | > 100 | > 100 | > 100 | > 100 | – | > 100 | > 100 | > 100 | – | > 100 | > 100 | – | > 100 | –
N#C/C(=C\c1ccc(Br)cc1)c1ccc(C(F)(F)F)cc1 [Compound 1f2f] | > 100 | > 100 | > 100 | > 100 | > 100 | > 100 | > 100 | – | > 100 | > 100 | > 100 | – | > 100 | > 100 | – | > 100 | –
N#C/C(=C\c1ccccc1F)c1ccc(C(F)(F)F)cc1 [Compound 1f2g] | > 100 | > 100 | > 100 | > 100 | > 100 | > 100 | > 100 | – | > 100 | > 100 | > 100 | – | > 100 | > 100 | – | > 100 | –
N#C/C(=C\c1cccc(F)c1)c1ccc(C(F)(F)F)cc1 [Compound 1f2h] | > 100 | > 100 | > 100 | > 100 | > 100 | > 100 | > 100 | – | > 100 | > 100 | > 100 | – | > 100 | > 100 | > 1.7 | 58.4 ± 9 | –
